Experimental data published in US11839212B2, “Synergistic pesticidal compositions and methods for delivery of insecticidal active ingredients” (0903608 B.C. Ltd., priority 2018, dated 2023).
Read-outs that look alike come from different tables or passages of the source. Each block holds one molecule with its values, some of them ahead of it.

Experiments:
Experiment in all cases: Synergistic Growth Inhibition Assay (MIC and FIC index, 96-well, resazurin)
Type in all cases: cell-based
Botrytis cinerea = conditions: Botrytis cinerea, 48 h, 48 hours incubation
Procedure: (§1) In some embodiments, the synergistic action between the pesticidal active ingredient, and the at least one C6-C10 (or alternatively C11 or C12) saturated or unsaturated aliphatic acid components of the pesticidal compositions according to embodiments of the present disclosure was tested using a Synergistic Growth Inhibition Assay, which is derived from and related to a checkerboard assay as is known in the art for testing of combinations of antimicrobial agents. In the Synergistic Growth Inhibition Assay used in accordance with some embodiments of the present disclosure, multiple dilutions of combinations of pesticidal active ingredient and at least one C6-C10 saturated or unsaturated aliphatic acid agents are tested in individual cells for inhibitory activity against a target pest or pathogenic organism. In one such embodiment, the combinations of pesticidal active ingredient and C6-C10 (or alternatively C11 or C12) saturated or unsaturated aliphatic acid agents may preferably be tested in decreasing concentrations. In a further such embodiment, the combinations of pesticidal active ingredient and C6-C10 (or alternatively C11 or C12) saturated or unsaturated aliphatic acid agents may be tested in increasing concentrations. These multiple combinations of the pesticidal active ingredient and at least one C6-C10 (or alternatively C11 or C12) saturated or unsaturated aliphatic acid agents may be prepared in 96-well microtiter plates. In one such embodiment, the Synergistic Growth Inhibition Assay then comprises rows which each contain progressively decreasing concentrations of the pesticidal active ingredient and one or more C6-C10 (or alternatively C11 or C12) saturated or unsaturated aliphatic acid agents to test for the MIC of the agents in combination at which growth of the target pest or pathogen is inhibited. Thus, each well of the microtiter plate is a unique combination of the two agents, at which inhibitory efficacy of the combination against the target pest or pathogen can be determined.
(§2) In one embodiment according to the present disclosure, for each row of microtiter cells in the Synergistic Growth Inhibition Assay, the FIC index is calculated from the lowest concentration of the pesticidal active ingredient and one or more C6-C10 saturated or unsaturated aliphatic acid agents necessary to inhibit growth of a target pest or pathogen. The FIC of each component is derived by dividing the concentration of the agent present in that well of the microtiter plate by the minimal inhibitory concentration (MIC) needed of that agent alone to inhibit growth of the target pest or pathogen. The FIC index is then the sum of these values for both agents in that well of the microtiter plate. […] Fractional inhibitory concentration indices may then used as measure of synergy. […] When the FIC index is equal to 1, the combination is additive.
(§3) Then, serial dilutions of these initial compositions in successive wells in the row of the microtiter plate were used to assay the pesticidal composition under the same conditions to determine the concentration of the composition combining the two agents corresponding to the microtiter well in which growth inhibition of the target pest or organism ceases.
(§4) Similarly to as described above, Resazurin was used as an indicator of growth or inhibition of growth of Botrytis cinerea in the exemplary Synergistic Growth Inhibition Assay. In addition to the color change of the resazurin, an optical or visual examination of the microtiter well may also be made to additionally determine the presence of growth or inhibition of growth of the Botrytis cinerea.

Alternaria solani = conditions: Alternaria solani, […]
Procedure: as §1, §2, §3
A culture of the representative fungal pathogen, namely Fusarium oxysporum, Botrytis cinerea, or Sclerotinia sclerotiorum, for example, is grown to exponential phase in potato dextrose broth (PDB).

Fusarium oxysporum = conditions: Fusarium oxysporum, 48 h, Compound B alone, 48 hours incubation, read-out: MIC (B)
Procedure: as §1, §2, §3
Resazurin dye (also known as Alamar blue dye) was used as an indicator to determine the presence of growth or inhibition of growth of Fusarium oxysporum in the wells of the 96 well microtiter plates used in the exemplary Synergistic Growth Inhibition Assay. In addition to the color change of the resazurin dye in the presence of growth of the Fusarium oxysporum, an optical or visual examination of the microtiter well may also be made to additionally determine the presence of growth or inhibition of growth of the Fusarium oxysporum.

Sclerotinia sclerotiorum = conditions: Sclerotinia sclerotiorum, […]
Procedure: as §1, §2, §3
as §4, with “Sclerotinia sclerotiorum” for “Botrytis cinerea”, “Sclerotinia sclerotiorum.” for “Botrytis cinerea.”

[1] = Table 51, Compound B alone, read-out: MIC (B)
[2] = Compound B alone, 7 days incubation, read-out: MIC (B)
[3] = Table 59, Compound B alone, read-out: MIC (B)
[4] = Compound A alone, 7 days incubation, read-out: MIC (A)
[5] = Table 60, Compound B alone, 7 days incubation, read-out: MIC (B)

MIC (Botrytis cinerea; [1]): 1250 mg/L
MIC (Alternaria solani; [2]): 2500 mg/L
Compound: CCCCC(O)C(=O)O (stereo not drawn) [2-Hydroxyhexanoic acid]

MIC (Fusarium oxysporum; Table 27): 312 mg/L
MIC (Fusarium oxysporum; Table 30): 312 mg/L
MIC (Fusarium oxysporum; Table 32): 156 mg/L
MIC (Alternaria solani; [2]): 156 mg/L
Compound: C=CCCCCCC(=O)O [7-Octenoic acid]

MIC (Botrytis cinerea; [1]): 125 mg/L
MIC (Botrytis cinerea; [3]): 125 mg/L
MIC (Alternaria solani; [2]): 250 mg/L
Compound: CCCC(C)CC(=O)O (stereo not drawn) [3-Methylhexanoic acid]

MIC (Botrytis cinerea; [1]): 78.1 mg/L
MIC (Botrytis cinerea; [3]): 78.1 mg/L
MIC (Alternaria solani; [2]): 312 mg/L
Compound: CCC(C)CCC(=O)O (stereo not drawn) [4-Methylhexanoic acid]

Further lines, the molecule ahead of its results:

Compound: OC(Cc1ccccc1Cl)(Cn1nc[nH]c1=S)C1(Cl)CC1 (stereo not drawn) [Prothioconazole, reference compound]
MIC (Botrytis cinerea; Table 57, Compound A alone, read-out: MIC (A)): 31.2 mg/L
MIC (Sclerotinia sclerotiorum; [4]): 62.5 mg/L
MIC (Alternaria solani; [4]): 500 mg/L

Compound: CCCC/C=C/CC(=O)O [Trans-3-octenoic acid]
MIC (Fusarium oxysporum; Table 27): 156 mg/L
MIC (Fusarium oxysporum; Table 30): 156 mg/L
MIC (Fusarium oxysporum; Table 32): 156 mg/L
MIC (Alternaria solani; [2]): 156 mg/L
MIC (Alternaria solani; [5]): 156 mg/L

Compound: O=C(O)CCCCCCCCCO [10-Hydroxydecanoic acid]
MIC (Botrytis cinerea; read-out: MIC (B), Table 51, Compound B alone): 250 mg/L
MIC (Botrytis cinerea; read-out: MIC (B), Table 59, Compound B alone): 250 mg/L
MIC (Sclerotinia sclerotiorum; read-out: MIC (B), Compound B alone, 7 days incubation): 500 mg/L
MIC (Alternaria solani; read-out: MIC (B)): 1000 mg/L

Compound: CC/C=C\CC(=O)O [Cis-3-hexenoic acid]
MIC (Sclerotinia sclerotiorum; Table 34, Compound B alone, 7 days incubation, read-out: MIC (B)): 156 mg/L
MIC (Alternaria solani; [2]): 312 mg/L

Compound: CCCCCCC(=O)O [Heptanoic acid, heptanoic acid]
MIC (Botrytis cinerea; Table 24, Compound B alone, read-out: MIC (B)): 156 mg/L
MIC (Sclerotinia sclerotiorum; Table 16, Compound B alone, incubation 7 days, read-out: MIC (B)): 39.1 mg/L
MIC (Sclerotinia sclerotiorum; Table 17, Compound B alone, incubation 7 days, read-out: MIC (B)): 39.1 mg/L
MIC (Sclerotinia sclerotiorum; Table 19, Compound B alone, incubation 7 days, read-out: MIC (B)): 39.1 mg/L
MIC (Alternaria solani; [2]): 156 mg/L
MIC (Alternaria solani; [5]): 156 mg/L

Compound: CCCCCC(O)CC(=O)O (stereo not drawn) [3-Hydroxyoctanoic acid]
MIC (Botrytis cinerea; [1]): 625 mg/L
MIC (Botrytis cinerea; Table 56, Compound B alone, read-out: MIC (B)): 625 mg/L
MIC (Botrytis cinerea; [3]): 625 mg/L
MIC (Alternaria solani; [2]): 1250 mg/L
